Legend:
[1] = test system: human neurons co-cultured with LPS-pre-activated human microglia; experiment: LPS-toxin induced microglia-neuron co-culture Parkinson's disease model (neurite length); assay type: cell-based; conditions: 1.5 μM, 48 hours, without PSA-20 0.64+/−0.01, FIG. 9A
Method: Human induced pluripotent stem cell-derived microglia (iPSdM) were obtained from induced pluripotent stem (iPS) cells. The microglial iPSdM line 1 (iPSdM-1) was used in this study generated from the iLB-C-35m-r1 clone (Bonn). iPSdM-1 (here named microglia or microglial cells) were cultured in N2-medium consisting of DMEM/F12 culture medium (Gibco) supplemented with 1% N2 (Invitrogen), 0.48 mM L-glutamine (Gibco) and 100 μg/ml penicillin/streptomycin (Gibco). Human induced pluripotent stem (iPS) cells (Foreskin-1, WiCell) were used for the generation of primitive neural stem cell (pNSC) and their differentiation into neurons according to a modified protocol, which was used to obtain primitive neural precursors from human embryonic stem cells. Briefly, iPS cells were cultured on feeder cells to form small colonies. […]
10 pictures per condition per experiment were taken by confocal laser scanning microscopy (Fluoview 1000, Olympus). Measurement of neuronal branches was done by ImageJ/Neuron J software (NIH) and relative neural branches lengths were quantified. […]

[2] = test system: humanized Siglec-11 transgenic mice; experiment: Septic encephalopathy model: TNF-alpha gene transcripts after repeated systemic LPS; assay type: in vivo; conditions: 4x LPS plus 4x PSA-20 1 μg per gram body weight i.p., 24 hours after last application
Method: Humanized Siglec-11 transgenic mice (Wang Y, 2009, dissertation, University Bonn, uniform resource name: urn:nbn:de:hbz:5N-18095) expressing human Siglec-11 under the Iba1-promoter in microglia and wildtype littermate control mice were used in this experiment. For gene transcript analysis, RNA was isolated from brains with Trizol followed with the RNeasy Mini Kit (Qiagen). Reverse transcription of RNA was performed with SuperScript III reverse transcriptase (Invitrogen) and hexamer random primers (Roche Molecular Biochemicals). Quantitative RT-PCR with specific oligonucleotides was performed with SYBR Green PCR Master Mix (Applied Biosystems) using the ABI 5700 Sequence Detection System (Perkin Elmer) and amplification protocol for the ABI 5700 Sequence Detection System. […] Results were analyzed with the ABI 5700 Sequence Detection System v.1.3 after establishing the reaction efficiency for each primer pair. Quantification using the delta-CT method was carried out.
Mice were either treated intraperitoneally with 4× lipopolysaccharide (LPS from Salmonella abortus equi S-form (ENZO Life Science), 1 μg per gram body weight) or 4×LPS (1 μg per gram body weight) plus 4×PSA-20 (1 μg per gram body weight) or 4×PBS. […] Mice were analyzed 24 hours after the last application.
Gene transcripts for TNF-alpha were determined from the total brain tissue by qRT-PCR at 24 hours after the last application.

## poly-(α(2→8)Neu5Ac)n [PSA-20]
[1]
  relative neurite length: 0.91+/−0.02
[2]
  gene transcripts for TNF-alpha in the spleen: No change
[2]; Siglec-11 transgenic mice
  gene transcription levels of TNF-alpha in the brain tissue: reduced gene transcription levels

Reference: patent US9944721B2, “Polysialic acid and use for treatment of neurodegenerative and neuroinflammatory diseases” (RHEINISCHE FRIEDRICH-WILHELMS UNIVERSITÄT BONN, priority 2013, dated 2018)
